In article PMC3244823 (2011) one finds Ki data, which are given here for 1 compound.

For orientation: pKi means the Ki on a negative log10 scale, so that one unit is a factor of ten. Low values mean a large Ki, high ones a small Ki.

The structures appear in SMILES notation. pKi: −log10 of the molar value.

The assay addresses Pin1 (murine embryonic fibroblasts) (Mus musculus, UniProt Q9QUR7). Description: EGCG-Sepharose pull-down from MEF lysates. The class given is cell-based.

Sequence of Pin1 (murine embryonic fibroblasts) (Q9QUR7 whole entry): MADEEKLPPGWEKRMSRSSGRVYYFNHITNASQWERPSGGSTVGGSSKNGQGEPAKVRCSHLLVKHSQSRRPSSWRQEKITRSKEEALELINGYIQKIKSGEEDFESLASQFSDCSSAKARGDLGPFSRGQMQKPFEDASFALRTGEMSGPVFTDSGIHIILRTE

In the case of `O=C(O[C@@H]1Cc2c(O)cc(O)cc2O[C@@H]1c1cc(O)c(O)c(O)c1)c1cc(O)c(O)c(O)c1` [EGCG, epigallocatechin-3-gallate], the negative logarithm of the Ki (pKi) is 4.35.
